Measurements from patent US20230390324A1, “TREATMENT OF FATTY LIVER DISEASES” (TX MEDIC AB, priority 2020, published 2023).

How the values were obtained:
[1] = tested on: 12 BioMAP® Diversity Plus human cell systems; experiment: BioMAP Diversity PLUS phenotypic profiling in 12 primary human cell and co-culture systems; type: cell-based
Procedure: Twelve primary human cell and co-cultures assays were used to assess the effects of dextran sulfate on clinically-relevant protein biomarkers of inflammation, cell growth and fibrosis as part of the quality controlled BioMAP® Diversity PLUS, commercially available service (Eurofins DiscoverX Corporation, Freemont, CA, USA; for full details https://www.discoverx.com). Dextran sulfate was tested in these assays at four concentrations: 4000 nMw 1300 nMw 400 nM and 150 nM. Human primary cells employed in the BioMAP® systems were used at passage 4 or earlier, derived from multiple donors (n=2 to 6), commercially purchased and handled according to the recommendations of the manufacturers. Human blood derived CD14+ monocytes were differentiated into macrophages in vitro before being added to the IMphg system (Eurofins DiscoverX Corporation).
The cell types and stimuli used in each assay system were as follows: 3C system [Human umbilical vein endothelial cells (HUVEC)+(IL-1β, TNFα and IFNγ)], 4H system [HUVEC+(IL-4 and histamine)], LPS system [Peripheral blood mononuclear cells (PBMC) and HUVEC+LPS (TLR4 ligand)], SAg system [PBMC and HUVEC+TCR ligands], BT system [CD19+ B cells and PBMC+(α-IgM and TCR ligands)], BF4T system [bronchial epithelial cells (BEC) and human neonatal dermal fibroblasts (HDFn)+(TNFα and IL-4)], BE3C system [BEC+(IL-1β, TNFα and IFNγ)], CASM3C system [coronary artery smooth muscle cells (CASMC)+(IL-1β, TNFα and IFNγ)], HDF3CGF system [HDFn+(IL-1β, TNFα, IFNγ, EGF, bFGF and PDGF-BB)], KF3CT system [keratinocytes and HDFn+(IL-1β, TNFα, IFNγ and TGFβ)], MyoF system [differentiated lung myofibroblasts+(TNFα and TGFβ)] and IMphg system [HUVEC and M1 macrophages+Zymosan (TLR2 ligand)].
Assays were derived from either single cell types or co-culture systems. Adherent cell types were cultured in 96 or 384-well plates until confluence, followed by the addition of PBMC (SAg and LPS systems). […] Test agents prepared in either DMSO (small molecules; final concentration 0.1%) or PBS (biologics) were added at the indicated concentrations 1 h before stimulation, and cells remained in culture for 24 h or as otherwise indicated (48 h, MyoF system; 72 h, BT system (soluble readouts); 168 h, BT system (secreted IgG)). […] Soluble factors from supernatants were quantified using either HTRF® detection, bead-based multiplex immunoassay or capture ELISA. Overt adverse effects of dextran sulfate on cell proliferation and viability (cytotoxicity) were detected by sulforhodamine B (SRB) staining for adherent cells, and alamarBlue® reduction for cells in suspension. For proliferation assays, individual cell types were cultured at subconfluence and measured at time points optimized for each system (48 h: 3C and CASM3C systems; 72 h: BT and HDF3CGF systems; 96 h: SAg system). Cytotoxicity for adherent cells was measured by SRB (24 h: 3C, 4H, LPS, SAg, BF4T, BE3C, CASM3C, HDF3CGF, KF3CT, and IMphg systems; 48 h: MyoF system), and by alamarBlue® staining for cells in suspension (24 h: SAg system; 42 h: BT system) at the time points indicated.
Biomarker measurements in dextran sulfate-treated samples were divided by the average of the control samples (at least 6 vehicle controls from the same plate) to generate a ratio that was then log10 transformed. Significance prediction envelopes were calculated using historical vehicle control data at a 95% confidence interval. […]

[2] = tested on: Human Schwann cells (ATCC CRL-2884™); experiment: Gene expression study in cultured human Schwann cells (microarray, IPA network analysis); type: cell-based; conditions: 0.01 mg/ml, 48 hours
Procedure: Human Schwann cells (ATCC CRL-2884™) were cultured in 25 cm^2 culture flasks coated with poly-d-lysine and laminin) in high-glucose DMEM with 10% fetal bovine serum (FBS) (n=8) and incubated at 37° C./5% CO2. Twenty-four house after seeding (Day 0) cells were treated once with either dextran sulfate (0.01 mg/ml in DMEM) or culture media. After 48 hours with treatment, the media were removed and cells were harvested in 2.5 ml Trizol:Water (4:1) solution containing 0.5 ml of chloroform at room temperature (RT). The flasks were inspected under the microscope to ensure full removal of cells. The collected lysates were stored at −80° C.
Lysates were left to equilibrate for 5 minutes at room temperature to permit the complete dissociation of nucleoprotein complexes. 1 ml lysate was removed from each sample and 200 μL of chloroform was added to each and the tube was shaken vigorously. Samples were stored at room temperature for 2-3 minutes and subsequently centrifuged at 12,000×g/15 min at 4° C. The mixture separated into 3 layers: a lower red phenol-chloroform phase, an interphase and a colorless upper aqueous phase. The top % of the aqueous phase (containing the RNA) was transferred to a new clean Eppendorf tube. The RNA was precipitated from the aqueous phase by adding an equal amount of 100% ethanol. The precipitated RNA was fixed onto a Spin Cartridge, washed twice and dried. The RNA was eluted in 50 μL warm RNase-Free Water. The amount and quality of the purified RNA was measured by Nanodrop. The RNA was stored at −80° C. before transfer to Source Bioscience for Gene Array analysis.
The background corrected expression data from each sample were downloaded into a separate file. The background corrected signal was log2 transformed for all samples for statistical analysis. To reduce the false discovery rate in the samples, the signals that were below ‘expression level’ were removed. The ‘below expression’ level was set at 5 for the log2 transformed expression values. (The expression value of the MAPT gene, which is not normally expressed in Schwann cells, was <5. However, the expression of usual ‘control’ gene ACTB (A_32_P137939; ACTB) was comfortably above 5).
MetaboAnalyst (Chong and Xia, MetaboAnalystR: an R package for flexible and reproducible analysis of metabolomics data, Bioinformatics 34(24): 4313-4314 (2018)) was used to analyze the gene expression profiles. […]
Additionally, a preliminary analysis was carried out to screen out genes that were not differentially expressed between any combinations of the three datasets. […] The remaining probe sets were analyzed for fold change and significance using Volcano plots (Qlucore, Lund, Sweden). […]

[3] = Serum total bilirubin in patients before and after dextran sulfate administration; type: in vivo; conditions: human patients with a neurological disease, 2 mg/kg subcutaneous once a week for ten weeks, week 10 vs week 0, p<0.05, FIG. 1
Procedure: Dextran sulfate (Tikomed A B, Viken, Sweden, WO 2016/076780) was administered at 2 mg/kg by […] subcutaneous injection once a week for ten weeks to human patients suffering from a neurological disease.
Peripheral venous blood samples were collected from patients before (week 0) and after dextran sulfate administration (week 5 and week 10) after at least 15 minutes of complete rest, using the standard tourniquet procedure, from the antecubital vein into a single VACUETTE® polypropylene tube containing serum separator and clot activator (Greiner-Bio One GmbH, Kremsmunster, Austria). After 30 mins at room temperature (20-25° C.), blood withdrawals were centrifuged at 1,890×g for 10 min to get serum aliquots.
A serum aliquot of about 300 μl was light-protected and then processed to extract fat-soluble metabolites using a method described in detail (Lazzarino et al., Single-step preparation of selected biological fluids for the high performance liquid chromatographic analysis of fat-soluble vitamins and antioxidants, J Chromatogr A. 2017; 1527: 43-52). Briefly, samples were supplemented with 1 ml of HPLC-grade acetonitrile, vigorously vortexed for 60 sec and incubated at 37° C. for 1 h in a water bath under agitation to allow the full extraction of lipid soluble compounds. […]

[4] = protein level, BioMAP Diversity Plus

Dextran sulfate
overall analysis of the responses of the 12 model systems ([1]; 150-4000 nM, FIG. 3): modulated inflammatory and immunoregulatory cytokines and molecules, tissue remodeling pathways (including activation of matrix degrading enzymes) and hemostasis activity | cytotoxicity (SRB staining / alamarBlue reduction) ([1]; all human culture systems evaluated, 150, 400, 1300 and 4000 nM): no cytotoxicity evident | CXCL9 levels [1, 4]: reduced levels | CXCL10 levels [1, 4]: reduced levels | CXCL11 levels [1, 4]: reduced levels | effect on inflammatory genes (molecular network analysis) ([2]; FIG. 5B): resolution of the normal inflammatory response | expression of the anti-fibrotic proteoglycan decorin ([2]; TGFβ-regulated gene network): upregulating | share of molecules of the TGFβ-regulated fibrosis network whose expression was regulated ([2]; 14 of 165 molecules, p<0.001): 8.5% | number of molecules of the TGFβ-regulated mechanistic network responsible for fibrosis whose expression was regulated ([2]; of 165 molecules, p<0.001): 14 | circulating levels of total bilirubin (free bilirubin + conjugated bilirubin) [3]: significant time-dependent decrease
